Measured values reported in US10952992B2, “Methods of treating intraocular pressure with activators of Tie-2” (Aerpio Pharmaceuticals, Inc., priority 2015, dated 2021).
Where a name gives a salt, the structure may show the parent alone.

Legend:
[1] = test system: intraocular pressure in normotensive New Zealand White rabbits; test: Example 3 intraocular pressure after repeated topical and subcutaneous administration (pneumotonometer); format: in vivo
Protocol: To measure the tolerability and effect of Compound 1 (sodium salt) on intraocular pressure following repeated topical and subcutaneous administration, normotensive New Zealand White rabbits were treated with Compound 1 (sodium salt). Animals were acclimated 1 to 2 times per day to the intraocular pressure (IOP) measurement procedures prior to initiation of the study to determine baseline IOP levels. IOP acclimation was performed in the two weeks prior to study start for a total of 5 days. Animals with unacceptable IOP values were excluded from the study. Prior to taking all IOP measurements, 1 to 2 drops of a 0.5% proparacaine solution were applied to the eye as a topical anesthetic. OP measurements were performed with a pneumotonometer. Test and control formulations were administered to the animals once or twice daily topically into both eyes or subcutaneously starting on Day 1 according to TABLE 20 and TABLE 21 below. PM dosing, where applicable, was performed ˜8 hours after AM dosing. IOP measurements were performed twice (AM and PM) at baseline (prior to the start of dosing), twice (AM and PM) on Days 1 and 7, and once daily (AM) on Days 2-6 and Day 8. Prior to taking all IOP measurements, 1 to 2 drops of a 0.5% proparacaine solution were applied to the eye as a topical anesthetic. IOP measurements were performed with a pneumotonometer. AM IOP measurements were performed 2 hours after AM dosing; the only exceptions were Day 8 AM measurements, which were performed 24 hours after the final dose. PM IOP measurements were performed ˜5 hours (baseline and Day 1) or ˜4 hours (Day 7) after AM IOP measurements, prior to PM dosing, with at least 15 minutes elapsing between anesthetic application for PM IOP measurements and PM dosing. The final round of slit-lamp examinations was performed on Day 8.

[2] = Example 3 general health observations; format: in vivo, New Zealand White rabbits; conditions: Example 3, 7 days topical or subcutaneous dosing
Protocol: Animals were observed within their cages once daily throughout the study period. […] General health observations were recorded daily beginning on Day 1 and continuing throughout the course of the study.

COC(=O)N[C@@H](Cc1ccccc1)C(=O)N[C@@H](Cc1ccc(NS(=O)(=O)O)cc1)c1csc(-c2cccs2)n1 [Compound 1 sodium salt]
reduction in IOP values compared to vehicle control ([1]; 10 mg/kg subcutaneous): slightly more consistent
lower IOP values compared to Group 1 (Vehicle) ([1]; Group 2: 0.45 mg/eye topical BID, over the course of dosing): not
IOP values compared to Group 1 (Vehicle) ([1]; Group 3: 1.2 mg/eye topical BID, over the course of dosing): lower IOP values
IOP values compared to Group 1 (Vehicle) ([1]; Group 4: 1.2 mg/eye topical QD, over the course of dosing): lower IOP values
IOP values compared to Group 1 (Vehicle) ([1]; Group 5: 10 mg/kg subcutaneous BID, early part of the study, difference decreased towards the end): Lower IOP values
apparent reduction in intraocular pressure values ([1]; Groups 3 and 4 (1.2 mg/eye topical BID, QD), Day 7 and Day 8 (24 hours after the end of dosing)): persisted
effect on intraocular pressure ([1]; topical 1.2 mg/eye, QD or BID): reduce intraocular pressure
adverse effects on general health [2]: No adverse effects
